Holding throughout (assay type): cell-based
Experiment [1] deals with T1, ALK protein in SR (NPM-ALK) cells (Homo sapiens, UniProt Q9UM73).
T1 construct: NPM (nucleophosmin, NPM1, P06748) fusion partner; host or cells: SR (ALCL) cells; the other entry of the earlier key: NPM1 (P06748, Nucleophosmin)
The experiment can be described thus: Western blot of ALK protein level (degradation, DC50), ALK phosphorylation and downstream signaling in SR cells. To be noted: for DC50: ALK protein degradation in SR cells. A general note: A western blot detects proteins with antibodies after separation by electrophoresis.
Method: (§1) Cancer cells were seeded in 1 ml RPMI1640 medium in 24-well plate at the density of 3×10^5 or 1.5×10^5 cells/ml. […] Then cells were washed twice with PBS and lyzed in RIPA lysis buffer with Halt Proteinase and Phosphotase inhibitor. Equal amount of proteins were loaded to run SDS-PAGE gels after denature. The gels were blotted to PVDF membrane. After incubating with first and secondary antibodies, the images were developed using SuperSignal West Pico Chemiluminescent Substrate.
(§2) DC50 (concentration required to degrade protein by half) were calculated based on the intensity from western blot, and data were analyzed via Prism GraphPad with non-linear regression.

In experiment [2] the target is T2, ALK protein in H3122 (EML4-ALK) cells (Homo sapiens, UniProt Q9UM73).
T2 construct: EML4 (Echinoderm microtubule-associated protein-like 4, Q9HC35) fusion partner, variant 1; host or cells: NCI-H3122 lung adenocarcinoma cells; the other entry of the earlier key: EML4 (Q9HC35, Echinoderm microtubule-associated protein-like 4)
T2 sequence (Q9UM73 with tags, fused parts or gaps): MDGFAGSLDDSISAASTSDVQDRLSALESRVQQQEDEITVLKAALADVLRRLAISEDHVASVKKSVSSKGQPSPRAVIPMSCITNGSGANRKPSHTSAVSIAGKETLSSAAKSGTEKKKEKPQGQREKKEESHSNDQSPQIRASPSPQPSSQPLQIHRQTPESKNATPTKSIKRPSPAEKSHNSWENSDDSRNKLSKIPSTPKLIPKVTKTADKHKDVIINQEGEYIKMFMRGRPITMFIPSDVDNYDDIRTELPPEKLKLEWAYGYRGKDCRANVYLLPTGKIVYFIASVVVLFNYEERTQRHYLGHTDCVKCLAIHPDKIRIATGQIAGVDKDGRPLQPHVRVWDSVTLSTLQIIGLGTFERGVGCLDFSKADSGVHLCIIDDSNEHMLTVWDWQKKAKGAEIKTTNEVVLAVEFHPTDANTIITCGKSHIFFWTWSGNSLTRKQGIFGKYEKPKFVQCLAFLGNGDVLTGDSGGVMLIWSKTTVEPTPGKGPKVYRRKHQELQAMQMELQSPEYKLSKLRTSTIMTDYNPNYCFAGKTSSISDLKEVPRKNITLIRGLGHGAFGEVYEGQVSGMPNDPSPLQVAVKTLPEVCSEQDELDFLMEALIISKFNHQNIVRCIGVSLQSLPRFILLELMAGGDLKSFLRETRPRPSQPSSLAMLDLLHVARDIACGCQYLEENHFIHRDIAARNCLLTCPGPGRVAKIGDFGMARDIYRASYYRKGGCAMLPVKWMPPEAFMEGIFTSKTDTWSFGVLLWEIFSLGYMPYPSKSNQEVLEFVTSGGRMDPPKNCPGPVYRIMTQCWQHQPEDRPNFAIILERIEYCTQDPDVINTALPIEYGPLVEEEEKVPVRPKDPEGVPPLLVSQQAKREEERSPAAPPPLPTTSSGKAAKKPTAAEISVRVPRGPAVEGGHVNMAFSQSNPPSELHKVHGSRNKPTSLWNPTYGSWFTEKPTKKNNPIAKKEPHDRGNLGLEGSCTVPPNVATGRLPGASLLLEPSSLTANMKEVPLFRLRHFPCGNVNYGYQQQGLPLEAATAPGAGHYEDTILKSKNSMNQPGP
Nature of the experiment: Western blot of ALK protein level (degradation, DC50), ALK phosphorylation and downstream signaling in H3122 cells. To be noted: ALK protein degradation in H3122 cells.
Method: as §1, §2

In a further experiment the test system is SR (NPM-ALK) cells. The experiment can be described thus: Growth inhibition IC50 in ALCL SR cells (CCK8/WST, 72 hours). To be noted: 72 h, SR cells, WST; Brigatinib-based PROTAD molecules (Table 3).

SMILES strings stand for the structures.

T1 sequence (Q9UM73 with tags, fused parts or gaps): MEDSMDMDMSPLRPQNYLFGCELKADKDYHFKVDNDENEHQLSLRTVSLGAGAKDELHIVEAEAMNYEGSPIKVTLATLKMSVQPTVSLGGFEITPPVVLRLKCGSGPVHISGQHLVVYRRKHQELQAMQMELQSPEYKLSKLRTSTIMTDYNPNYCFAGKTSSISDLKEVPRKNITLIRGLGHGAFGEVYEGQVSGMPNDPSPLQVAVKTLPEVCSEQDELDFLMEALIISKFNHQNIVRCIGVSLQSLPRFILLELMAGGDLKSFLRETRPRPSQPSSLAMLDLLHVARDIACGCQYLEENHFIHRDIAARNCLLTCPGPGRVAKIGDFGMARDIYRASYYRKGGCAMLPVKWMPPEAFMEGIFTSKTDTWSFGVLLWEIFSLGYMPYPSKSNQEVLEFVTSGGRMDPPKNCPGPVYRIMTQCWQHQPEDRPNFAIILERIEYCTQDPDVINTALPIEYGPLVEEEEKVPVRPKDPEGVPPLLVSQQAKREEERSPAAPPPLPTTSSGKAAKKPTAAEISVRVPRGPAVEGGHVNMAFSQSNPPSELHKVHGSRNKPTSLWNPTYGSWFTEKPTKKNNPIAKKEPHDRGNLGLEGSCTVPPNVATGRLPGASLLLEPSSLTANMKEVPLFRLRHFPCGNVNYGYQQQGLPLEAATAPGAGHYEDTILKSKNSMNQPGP

As for `COc1cc(N2CCC(N3CCN(C(=O)CCCC(=O)N[C@H](C(=O)N4C[C@H](O)C[C@H]4C(=O)NCc4ccc(-c5scnc5C)cc4)C(C)(C)C)CC3)CC2)ccc1Nc1ncc(Cl)c(Nc2ccccc2P(C)(C)=O)n1` [SIAIS164121, (2S,4R)-1-((S)-2-(5-(4-(1-(4-((5-chloro-4-((2-(dimethylphosphoryl)phenyl)amino)pyrimidin-2-yl)amino)-3-methoxyphenyl)piperidin-4-yl)piperazin-1-yl)-5-oxopentanamido)-3,3-dimethylbutanoyl)-4-hydroxy-N-(4-(4-methylthiazol-5-yl)benzyl)pyrrolidine-2-carboxamide], the DC50 (as a rule, the concentration at which degradation of the target reaches its halfway point) in experiment [1] fell in the range of 1 to 10 nM; in experiment [2] it was 50 to 100 nM. In addition, in the experiment with SR (NPM-ALK) cells, inhibition was half-maximal at 21.6 ± 12.5 nM (IC50).
As for `COc1cc(N2CCC(N3CCN(C(=O)CCCCC(=O)N[C@H](C(=O)N4C[C@H](O)C[C@H]4C(=O)NCc4ccc(-c5scnc5C)cc4)C(C)(C)C)CC3)CC2)ccc1Nc1ncc(Cl)c(Nc2ccccc2P(C)(C)=O)n1` [SIAIS164122, (2S,4R)-1-((S)-2-(6-(4-(1-(4-((5-chloro-4-((2-(dimethylphosphoryl)phenyl)amino)pyrimidin-2-yl)amino)-3-methoxyphenyl)piperidin-4-yl)piperazin-1-yl)-6-oxohexanamido)-3,3-dimethylbutanoyl)-4-hydroxy-N-(4-(4-methylthiazol-5-yl)benzyl)pyrrolidine-2-carboxamide], the DC50 in experiment [1] is 1 to 50 nM; in experiment [2], 50 to 100 nM. Besides, in the experiment on SR (NPM-ALK) cells, the IC50 – broadly, the concentration needed to halve the response being measured – is 12.1 ± 9.2 nM.
In the same order, the values of `COc1cc(N2CCC(N3CCN(C(=O)CCCCCC(=O)N[C@H](C(=O)N4C[C@H](O)C[C@H]4C(=O)NCc4ccc(-c5scnc5C)cc4)C(C)(C)C)CC3)CC2)ccc1Nc1ncc(Cl)c(Nc2ccccc2P(C)(C)=O)n1` [SIAIS164123, (2S,4R)-1-((S)-2-(7-(4-(1-(4-((5-chloro-4-((2-(dimethylphosphoryl)phenyl)amino)pyrimidin-2-yl)amino)-3-methoxyphenyl)piperidin-4-yl)piperazin-1-yl)-7-oxoheptanamido)-3,3-dimethylbutanoyl)-4-hydroxy-N-(4-(4-methylthiazol-5-yl)benzyl)pyrrolidine-2-carboxamide] are 1 to 50 nM, 10 to 50 nM and 11.4 ± 8.1 nM.
With `COc1cc(N2CCC(N3CCN(C(=O)CCCCCCC(=O)N[C@H](C(=O)N4C[C@H](O)C[C@H]4C(=O)NCc4ccc(-c5scnc5C)cc4)C(C)(C)C)CC3)CC2)ccc1Nc1ncc(Cl)c(Nc2ccccc2P(C)(C)=O)n1` [SIAIS164124, (2S,4R)-1-((S)-2-(8-(4-(-(4-((5-chloro-4-((2-(dimethylphosphoryl)phenyl)amino)pyrimidin-2-yl)amino)-3-methoxyphenyl)piperidin-4-yl)piperazin-1-yl)-8-oxooctanamido)-3,3-dimethylbutanoyl)-4-hydroxy-N-(4-(4-methylthiazol-5-yl)benzyl)pyrrolidine-2-carboxamide], the DC50 in experiment [1] lay within 1 to 10 nM; in experiment [2], 100 to 500 nM. Besides, the IC50 in the experiment on SR (NPM-ALK) cells stood at 9.5 ± 8.1 nM.
In the same order, the values of `COc1cc(N2CCC(N3CCN(C(=O)CCCCCCCC(=O)N[C@H](C(=O)N4C[C@H](O)C[C@H]4C(=O)NCc4ccc(-c5scnc5C)cc4)C(C)(C)C)CC3)CC2)ccc1Nc1ncc(Cl)c(Nc2ccccc2P(C)(C)=O)n1` [SIAIS164125, (2S,4R)-1-((S)-2-(9-(4-(1-(4-((5-chloro-4-((2-(dimethylphosphoryl)phenyl)amino)pyrimidin-2-yl)amino)-3-methoxyphenyl)piperidin-4-yl)piperazin-1-yl)-9-oxononanamido)-3,3-dimethylbutanoyl)-4-hydroxy-N-(4-(4-methylthiazol-5-yl)benzyl)pyrrolidine-2-carboxamide] are 1 to 10 nM, 10 to 50 nM and 9 ± 5.7 nM.
Regarding `COc1cc(N2CCC(N3CCN(C(=O)CCCCCCCCC(=O)N[C@H](C(=O)N4C[C@H](O)C[C@H]4C(=O)NCc4ccc(-c5scnc5C)cc4)C(C)(C)C)CC3)CC2)ccc1Nc1ncc(Cl)c(Nc2ccccc2P(C)(C)=O)n1` [SIAIS164126, (2S,4R)-1-((S)-2-(10-(4-(1-(4-((5-chloro-4-((2-(dimethylphosphoryl)phenyl)amino)pyrimidin-2-yl)amino)-3-methoxyphenyl)piperidin-4-yl)piperazin-1-yl)-10-oxodecanamido)-3,3-dimethylbutanoyl)-4-hydroxy-N-(4-(4-methylthiazol-5-yl)benzyl)pyrrolidine-2-carboxamide], the DC50 in experiment [1] lay within 1 to 10 nM; in experiment [2], 10 to 50 nM. Also, the IC50 with SR (NPM-ALK) cells came out at 8 ± 6.7 nM.
With `COc1cc(N2CCC(NC(=O)CCC(=O)N[C@H](C(=O)N3C[C@H](O)C[C@H]3C(=O)NCc3ccc(-c4scnc4C)cc3)C(C)(C)C)CC2)ccc1Nc1ncc(Cl)c(Nc2ccccc2P(C)(C)=O)n1` [SIAIS164143, N1-(1-(4-((5-chloro-4-((2-(dimethylphosphoryl)phenyl)amino)pyrimidin-2-yl)amino)-3-methoxyphenyl)piperidin-4-yl)-N4-((S)-1-((2S,4R)-4-hydroxy-2-((4-(4-methylthiazol-5-yl)benzyl)carbamoyl)pyrrolidin-1-yl)-3,3-dimethyl-1-oxobutan-2-yl) succinamide], the half-maximal degradation concentration (DC50) in experiment [1] was in the range of 1 to 10 nM; in experiment [2], 50 to 100 nM. Besides, the midpoint of inhibition with SR (NPM-ALK) cells, the IC50, lay at 11.7 ± 4.2 nM.
In the same order, the values of `COc1cc(N2CCC(NC(=O)CCCC(=O)N[C@H](C(=O)N3C[C@H](O)C[C@H]3C(=O)NCc3ccc(-c4scnc4C)cc3)C(C)(C)C)CC2)ccc1Nc1ncc(Cl)c(Nc2ccccc2P(C)(C)=O)n1` [SIAIS164144, N1-(1-(4-((5-chloro-4-((2-(dimethylphosphoryl)phenyl)amino)pyrimidin-2-yl)amino)-3-methoxyphenyl)piperidin-4-yl)-N5-((S)-1-((2S,4R)-4-hydroxy-2-((4-(4-methylthiazol-5-yl)benzyl)carbamoyl)pyrrolidin-1-yl)-3,3-dimethyl-1-oxobutan-2-yl)glutaramide] are 1 to 10 nM, 20 to 100 nM and 13.6 ± 9.1 nM.
In the same order, the values of `COc1cc(N2CCC(NC(=O)CCCCC(=O)N[C@H](C(=O)N3C[C@H](O)C[C@H]3C(=O)NCc3ccc(-c4scnc4C)cc3)C(C)(C)C)CC2)ccc1Nc1ncc(Cl)c(Nc2ccccc2P(C)(C)=O)n1` [SIAIS164145, N1-(1-(4-((5-chloro-4-((2-(dimethylphosphoryl)phenyl)amino)pyrimidin-2-yl)amino)-3-methoxyphenyl)piperidin-4-yl)-N6-((S)-1-((2S,4R)-4-hydroxy-2-((4-(4-methylthiazol-5-yl)benzyl)carbamoyl)pyrrolidin-1-yl)-3,3-dimethyl-1-oxobutan-2-yl)adipamide] are 1 to 10 nM, 50 to 100 nM and 10.3 ± 6.3 nM.
As for `COc1cc(N2CCC(NC(=O)CCCCCC(=O)N[C@H](C(=O)N3C[C@H](O)C[C@H]3C(=O)NCc3ccc(-c4scnc4C)cc3)C(C)(C)C)CC2)ccc1Nc1ncc(Cl)c(Nc2ccccc2P(C)(C)=O)n1` [SIAIS164146, N1-(1-(4-((5-chloro-4-((2-(dimethylphosphoryl)phenyl)amino)pyrimidin-2-yl)amino)-3-methoxyphenyl)piperidin-4-yl)-N7-((S)-1-((2S,4R)-4-hydroxy-2-((4-(4-methylthiazol-5-yl)benzyl)carbamoyl)pyrrolidin-1-yl)-3,3-dimethyl-1-oxobutan-2-yl)heptanediamide], the DC50 in experiment [1] fell in the range of 1 to 10 nM; in experiment [2] it was 0.1 to 10 nM. Further, the IC50 in the experiment on SR (NPM-ALK) cells amounted to 3.6 ± 2.1 nM.
In the same order, the values of `COc1cc(N2CCC(N3CCN(C(=O)CCC(=O)NCCNc4cccc5c4C(=O)N(C4CCC(=O)NC4=O)C5=O)CC3)CC2)ccc1Nc1ncc(Cl)c(Nc2ccccc2P(C)(C)=O)n1` (stereo not shown) [SIAIS164152, 4-(4-(1-(4-((5-chloro-4-((2-(dimethylphosphoryl)phenyl)amino)pyrimidin-2-yl)amino)-3-methoxyphenyl)piperidin-4-yl)piperazin-1-yl)-N-(2-((2-(2,6-dioxopiperidin-3-yl)-1,3-dioxoisoindolin-4-yl)amino)ethyl)-4-oxobutanamide] are 0.5 to 10 nM, 10 to 50 nM and 7.9 ± 3.5 nM.
Turning to `COc1cc(N2CCC(N3CCN(C(=O)CCCc4cn(CCCC(=O)N[C@H](C(=O)N5C[C@H](O)C[C@H]5C(=O)NCc5ccc(-c6scnc6C)cc5)C(C)(C)C)nn4)CC3)CC2)ccc1Nc1ncc(Cl)c(Nc2ccccc2P(C)(C)=O)n1` [SIAIS164153, (2S,4R)-1-((S)-2-(4-(4-(4-(4-(1-(4-((5-chloro-4-((2-(dimethylphosphoryl)phenyl)amino)pyrimidin-2-yl)amino)-3-methoxyphenyl)piperidin-4-yl)piperazin-1-yl)-4-oxobutyl)-1H-1,2,3-triazol-1-yl)butanamido)-3,3-dimethylbutanoyl)-4-hydroxy-N-(4-(4-methylthiazol-5-yl)benzyl)pyrrolidine-2-carboxamide], the figures for the DC50 in experiment [1] and in experiment [2] were 100 to 500 nM and 1 to 10 nM, respectively. The “concentration at which ALK proteins were degraded” value in experiment [1] (SR cells, western blot) is 1 nM. The compound further returned an IC50 with SR (NPM-ALK) cells of 55.9 ± 19.9 nM.
`COc1cc(N2CCN(C(=O)CNc3cccc4c3C(=O)N(C3CCC(=O)NC3=O)C4=O)CC2)ccc1Nc1ncc(Cl)c(Nc2ccccc2P(C)(C)=O)n1` (stereo not shown) [SIAIS1197055, 4-((2-(4-(4-((5-chloro-4-((2-(dimethylphosphoryl)phenyl)amino)pyrimidin-2-yl)amino)-3-methoxyphenyl)piperazin-1-yl)-2-oxoethyl)amino)-2-(2,6-dioxopiperidin-3-yl)isoindoline-1,3-dione]: the DC50 in experiment [1] lay in the range of 1 to 10 nM; in experiment [2], 1 to 50 nM. In the experiment with SR (NPM-ALK) cells, the IC50 was ~1 nM.

Source of the values: US11771709B2, “ALK protein degradation agent and anti-tumor application thereof” (ShanghaiTech University, priority 2017, dated 2023).
